Reference: patent US12016831B2, “Polidocanol for use as immunomodulating agent” (priority 2018, dated 2024)

Test system: patients with C2 CEAP Class and bearing lower limbs varices
Experiment: Venous refilling time measurement via photoplethysmography (FPG)
Assay type: in vivo, human
Conditions: for venous refilling time (VRT): Diluted Polidocanol Group
Description: The results were confirmed by photoplethysmography in a limited number of patients (n=20) wherein the measurement of venous refilling registered and examined, compared to the beginning of the treatment (after at least 4 sessions), has evidenced an increase of the peripheral venous refilling time in 17 out of 20 cases, indicating a plausible increase of venous resistance, i.e. a reduction of the peripheral reticulo-capillary bed or anyway of the superficial venous system. • 9. Improvement of the so-called “cellulitis”. The results were as follows:
40 patients with C2 CEAP Class and bearing lower limbs varices were examined via photoplethysmography exam with a Photoplethysmograph with Light Reflection Rheography/1-Channel (Vasoquant 1000 D-Ppg), they were divided into two homogeneous groups wherein the venous refilling time was measured before and after the hemodynamic therapy.
In the Diluted Polidocanol Group the hemodynamic therapy was followed after 30 days by sclerosing treatment with diluted polidocanol, prepared as described in example 1. In the Basal Group, after hemodynamic therapy no further treatment was carried out.
In the Basal Group of 20 patients, measurements of the refilling time of the superficial veins (SV) via photoplethysmography (FPG) exam were carried out at time zero, at time 1 (1 month) after hemodynamic (surgical) therapy on the varices, and at time 6 (6 months) without any further treatment.
In the Diluted Polidocanol Group of 20 patients, measurements of the refilling time of the SV via FPG were carried out at time zero, at 1 month after hemodynamic (surgical) therapy on the varices, and at time 6 (6 months) after 3-4 sessions of sclerotherapy with the method of the invention.

## Polidocanol [diluted polidocanol]
6 months, after 3-4 sessions, 18 out of 20
  patients with an improved index according to FPG exam: 90%
1 month, basal 24.3±6.78, p<0.05
  venous refilling time (VRT): 35.3 ± 4.14 s
6 months, after 3-4 sessions, p<0.05 vs 1 month
  venous refilling time (VRT): 37.6 ± 4.13 s
T6 (6 months), basal group 35, p<0.001 Chi-squared test
  refilling time at T6, Diluted Polidocanol Group vs basal group: 38 s
n=20, after at least 4 sessions, compared to the beginning of the treatment
  cases with increase of the peripheral venous refilling time: 17 out of 20
